Source: patent publication US8987209B2, “N-carboxyalkyl-auristatin and the use thereof” (Seattle Genetics, Inc., priority 2010, dated 2015)
Square brackets hold non-standard residues; d marks the D form. Peptide text beside a SMILES is read from it. * marks the point of attachment. NMeVal(N-(CH2)3COOH) = CC(C)[C@@H](C(=O)*)N(C)CCCC(=O)O; Dolaproine = CO[C@@H]([C@@H]1CCCN1)[C@@H](C)C(=O)O; Dil = CC[C@H](C)[C@H](NC)[C@@H](CC(=O)O)OC; X3 = CC(C)[C@@H](C(=O)*)N(C)CCCCCC(=O)O; Morpholide = C1CN(*)CCO1; X1 = O=C(NN*)c1ccccc1; NHBn = c1ccc(CN*)cc1; OBn = c1ccc(CO*)cc1

Key:
[1] = Cell permeability, flux assay using Caco-2 cells; format: in vitro ADME; details: human, basal to apical, 2 hours incubation
Protocol: B-5. Determination of Cell Permeability:
The cell permeability of a substance can be analyzed by means of in vitro tests in a flux assay using Caco-2-cells [M. D. Troutman and D. R. Thakker, Pharm. Res. 20 (8), 1210-1224 (2003)]. For this analysis the cells were cultured on 24 membrane filter plates for 15 to 16 days. In order to determine permeation the test substance in question was given either apical (A) to a HEPES buffer or basal (B) on the cells and incubated for 2 hours. The samples were withdrawn after 0 and 2 hours from the cis and trans compartments. The samples were separated by means of HPLC (Agilent 1200, Böblingen, Germany) using reverse-phase columns. The HPLC system was coupled to a triple quadropol mass spectrometer API 4000 (Applied Biosystems Applera, Darmstadt, Germany) via a turbo ion spray. The permeability was evaluated by means of the Papp value which was calculated with the help of the formula published by Schwab et al. [D. Schwab et al., J. Med. Chem. 46, 1716-1725 (2003)]. A substance was classified as active if the ratio of Papp (B-a) to Papp (A-B) was >2 or <0.5.
The permeability from B to A [Papp^(B-A)] is particularly important for toxophores which are being released intracellular: The lower the permeability the longer the residence time of the substance in the cell after intracellular release and, consequently, the more time available for interaction with the biochemical target (here: tubulin).

[2] = test system: human renal carcinoma cell line 786-0; experiment: Anti-proliferative effect on renal cell carcinoma 786-0 cell line (MTT assay); format: cell-based; details: Homo sapiens, 786-0 cells, incubation 48 to 96 hours, serum free medium or 2% FCS
Protocol: B-1. Determination of Anti-proliferative Effects of Renal Cell Carcinoma 786-0 Cell Line:
A defined number of cells of the human renal carcinoma cell line 786-0 were cultured in a 96 well micro titer plate in rich medium (2500 or 7.000 cells/well) and then incubated over night at 37° C./5% CO2. After 18 hours the seed medium was replaced by a serum free medium or medium with 2% FCS. The treatment began with measuring out the respective test substances in varying concentrations (10^−5 M to 10^−14 M). Incubation times of between 48 hours and 96 hours were chosen. The proliferation was determined by means of the MTT assay (ATCC, Manassas, Va., USA, catalogue no. 30-1010K). After completion of incubation period the MTT reagent was incubated with the cells for 4 hours before lysis occurred over night by measuring out the detergent. The created stain was detected at 570 nm. The proliferation of the cells, which were treated identically to the other cells but without the test substance was defined as the 100% value. The data obtained from this test represent triple determinations and at least two experiments had been carried out independently of each other.

HT-29 wt cell line = experiment: Anti-proliferative effect on HT-29 wt cell line (MTT assay); format: cell-based, human; details: Homo sapiens, HT-29 wt cells, incubation 48 to 96 hours, medium with 10% FCS
Protocol: B-2. Determination of Anti-proliferative Effects of HT-29 wt Cell Line:
After 18 hours the seed medium was replaced by a fresh medium with 10% FCS. The treatment started with measuring out the respective test substance. The dose-response curves were determined of the investigative substances with a concentration of 10^−5 M to 10^−14 M (1:10 dilutions). Incubation times of between 48 hours and 96 hours were chosen. The proliferation was detected by means of the MTT assay (ATCC, Manassas, Va., USA, catalogue no. 30-1010K). After completion of selected incubation period the MTT reagent was incubated with the cells for 4 hours before lysis occurred over night by measuring out the detergent. The created stain was detected at 570 nm. The proliferation of the cells, which were treated identically to the other cells but without the test substance, was defined as the 100% value. The data obtained from this test represent triple determinations and at least two experiments had been carried out independently of each other.

CC[C@H](C)[C@@H]([C@@H](CC(=O)N1CCC[C@H]1[C@H](OC)[C@@H](C)C(=O)N[C@@H](Cc1ccccc1)C(=O)OC)OC)N(C)C(=O)[C@@H](NC(=O)[C@H](C(C)C)N(C)CCCC(=O)O)C(C)C [Example 7] ({NMeVal(N-(CH2)3COOH)}-V[Dil][Dolaproine]F-OMe)
Papp B→A at 2 h [1]: 1.8 ×10⁻⁶ cm/s

CC[C@H](C)[C@@H]([C@@H](CC(=O)N1CCC[C@H]1[C@H](OC)[C@@H](C)C(=O)N[C@@H](Cc1c[nH]c2ccccc12)C(=O)OCc1ccccc1)OC)N(C)C(=O)[C@@H](NC(=O)[C@H](C(C)C)N(C)CCCC(=O)O)C(C)C [Example 8, N-(3-carboxypropyl)-N-methyl-L-valyl-N-[(3R,4S,5S)-1-{(2S)-2-[(1R,2R)-3-{[(2S)-1-(benzyloxy)-3-(1H-indol-3-yl)-1-oxopropane-2-yl]amino}-1-methoxy-2-methyl-3-oxopropyl]pyrrolidin-1-yl}-3-methoxy-5-methyl-1-oxoheptan-4-yl]-N-methyl-L-valinamide] ({NMeVal(N-(CH2)3COOH)}-V[Dil][Dolaproine]W-OBn)
IC50 [2]: 5.2 nM
Papp B→A at 2 h [1]: 2.2 ×10⁻⁶ cm/s
IC50 (HT-29 wt cell line): 0.5 nM

CCCNC(=O)[C@]1(NC(=O)[C@H](C)[C@@H](OC)[C@@H]2CCCN2C(=O)C[C@@H](OC)[C@H]([C@@H](C)CC)N(C)C(=O)[C@@H](NC(=O)[C@H](C(C)C)N(C)CCCC(=O)O)C(C)C)C[C@@H]1c1ccccc1 [Example 11, N-(3-carboxypropyl)-N-methyl-L-valyl-N-[(3R,4S,5S)-3-methoxy-1-{(2S)-2-[(1R,2R)-1-methoxy-2-methyl-3-oxo-3-{[(1S,2R)-2-phenyl-1-(propylcarbamoyl)cyclopropyl]amino}propyl]pyrrolidin-1-yl}-5-methyl-1-oxoheptan-4-yl]-N-methyl-L-valinamide]
IC50 [2]: 6.7 nM
Papp B→A at 2 h [1]: 1.1 ×10⁻⁶ cm/s
IC50 (HT-29 wt cell line): 0.8 nM

CCOC(=O)[C@]1(NC(=O)[C@H](C)[C@@H](OC)[C@@H]2CCCN2C(=O)C[C@@H](OC)[C@H]([C@@H](C)CC)N(C)C(=O)[C@@H](NC(=O)[C@H](C(C)C)N(C)CCCC(=O)O)C(C)C)C[C@@H]1c1ccccc1 [Example 12, N-(3-carboxypropyl)-N-methyl-L-valyl-N-[(3R,4S,5S)-1-{(2S)-2-[(1R,2R)-3-{[(1S,2R)-1-(ethoxycarbonyl)-2-phenylcyclopropyl]amino}-1-methoxy-2-methyl-3-oxopropyl]pyrrolidin-1-yl}-3-methoxy-5-methyl-1-oxoheptan-4-yl]-N-methyl-L-valinamide]
IC50 [2]: 13 nM
Papp B→A at 2 h [1]: 1.5 ×10⁻⁶ cm/s

CC[C@H](C)[C@@H]([C@@H](CC(=O)N1CCC[C@H]1[C@H](OC)[C@@H](C)C(=O)N[C@@H](Cc1ccccc1)C(N)=O)OC)N(C)C(=O)[C@@H](NC(=O)[C@H](C(C)C)N(C)CCCC(=O)O)C(C)C [Example 13, N-(3-carboxypropyl)-N-methyl-L-valyl-N-[(3R,4S,5S)-1-{(2S)-2-[(1R,2R)-3-{[(2S)-1-amino-1-oxo-3-phenylpropan-2-yl]amino}-1-methoxy-2-methyl-3-oxopropyl]pyrrolidin-1-yl}-3-methoxy-5-methyl-1-oxoheptan-4-yl]-N-methyl-L-valinamide] ({NMeVal(N-(CH2)3COOH)}-V[Dil][Dolaproine]F-NH2)
IC50 [2]: 12.5 nM
Papp B→A at 2 h [1]: 1 ×10⁻⁶ cm/s
IC50 (HT-29 wt cell line): 1 nM

CC[C@H](C)[C@@H]([C@@H](CC(=O)N1CCC[C@H]1[C@H](OC)[C@@H](C)C(=O)N[C@@H](Cc1ccccc1)C(=O)NNC(=O)c1ccccc1)OC)N(C)C(=O)[C@@H](NC(=O)[C@H](C(C)C)N(C)CCCC(=O)O)C(C)C [Example 14, (3R,4S,7S,10S)-3-(2-{(2S)-2-[(1R,2R)-3-{[(2S)-1-(2-benzoylhydrazino)-1-oxo-3-phenylpropane-2yl]amino}-1-methoxy-2-methyl-3-oxopropyl]pyrrolidin-1-yl}-2-oxoethyl)-4-[(2S)-butane-2-yl]-7,10-diisopropyl-5,11-dimethyl-6,9-dioxo-2-oxa-5,8,11-triazapentadecan-15-acid] ({NMeVal(N-(CH2)3COOH)}-V[Dil][Dolaproine]F-X1)
IC50 [2]: 59 nM
Papp B→A at 2 h [1]: 0.3 ×10⁻⁶ cm/s

CC[C@H](C)[C@@H]([C@@H](CC(=O)N1CCC[C@H]1[C@H](OC)[C@@H](C)C(=O)N[C@@]1(C(N)=O)C[C@@H]1c1ccccc1)OC)N(C)C(=O)[C@@H](NC(=O)[C@H](C(C)C)N(C)CCCC(=O)O)C(C)C [Example 17, N-(3-carboxypropyl)-N-methyl-L-valyl-N-[(3R,4S,5S)-1-{(2S)-2-[(1R,2R)-3-{[(1S,2R)-1-carbamoyl-2-phenylcyclopropyl]amino}-1-methoxy-2-methyl-3-oxopropyl]pyrrolidin-1-yl}-3-methoxy-5-methyl-1-oxoheptan-4-yl]-N-methyl-L-valinamide]
Papp B→A at 2 h [1]: 0.2 ×10⁻⁶ cm/s

CC[C@H](C)[C@@H]([C@@H](CC(=O)N1CCC[C@H]1[C@H](OC)[C@@H](C)C(=O)N[C@@H](Cc1c[nH]c2ccccc12)C(N)=O)OC)N(C)C(=O)[C@@H](NC(=O)[C@H](C(C)C)N(C)CCCCCC(=O)O)C(C)C [Example 19] (X3-V[Dil][Dolaproine]W-NH2)
Papp B→A at 2 h [1]: 0.2 ×10⁻⁶ cm/s

CC[C@H](C)[C@@H]([C@@H](CC(=O)N1CCC[C@H]1[C@H](OC)[C@@H](C)C(=O)N[C@@H](Cc1ccccc1)C(=O)N1CCOCC1)OC)N(C)C(=O)[C@@H](NC(=O)[C@H](C(C)C)N(C)CCCC(=O)O)C(C)C [Example 23, N-(3-carboxypropyl)-N-methyl-L-valyl-N-[(3R,4S,5S)-3-methoxy-1-{(2S)-2-[(1R,2R)-1-methoxy-2-methyl-3-{[(2S)-1-(morpholin-4-yl)-1-oxo-3-phenylpropane-2-yl]amino}-3-oxopropyl]pyrrolidin-1-yl}-5-methyl-1-oxoheptan-4-yl]-N-methyl-L-valinamide] ({NMeVal(N-(CH2)3COOH)}-V[Dil][Dolaproine]F-Morpholide)
Papp B→A at 2 h [1]: 0.2 ×10⁻⁶ cm/s

CC[C@H](C)[C@@H]([C@@H](CC(=O)N1CCC[C@H]1[C@H](OC)[C@@H](C)C(=O)N[C@H](C(=O)NCc1ccccc1)[C@@H](C)O)OC)N(C)C(=O)[C@@H](NC(=O)[C@H](C(C)C)N(C)CCCC(=O)O)C(C)C [Example 25, N-(3-carboxypropyl)-N-methyl-L-valyl-N-[(3R,4S,5S)-1-{(2S)-2-[(1R,2R)-3-{[(2S,3R)-1-(benzylamino)-3-hydroxy-1-oxobutane-2-yl]amino}-1-methoxy-2-methyl-3-oxopropyl]pyrrolidin-1-yl}-3-methoxy-5-methyl-1-oxoheptan-4-yl]-N-methyl-L-valinamide] ({NMeVal(N-(CH2)3COOH)}-V[Dil][Dolaproine]T-NHBn)
IC50 [2]: 164 nM
IC50 (HT-29 wt cell line): 1.5 nM

CC[C@H](C)[C@@H]([C@@H](CC(=O)N1CCC[C@H]1[C@H](OC)[C@@H](C)C(=O)N[C@H](COCc1ccc(C(=O)OC)cc1)Cc1ccccc1)OC)N(C)C(=O)[C@@H](NC(=O)[C@H](C(C)C)N(C)CCCC(=O)O)C(C)C [Example 26, N-(3-carboxypropyl)-N-methyl-L-valyl-N-[(3R,4S,5S)-3-methoxy-1-{(2S)-2-[(1R,2R)-1-methoxy-3-{[(2S)-1-{[4-(methoxycarbonyl)benzyl]oxy}-3-phenylpropane-2-yl]amino}-2-methyl-3-oxopropyl]pyrrolidin-1-yl}-5-methyl-1-oxoheptan-4-yl]-N-methyl-L-valinamide]
IC50 [2]: 10 nM
IC50 (HT-29 wt cell line): 1.5 nM
